Experimental data published in EP4722213A1, “NITROGEN-CONTAINING FUNCTIONAL GROUP-SUBSTITUTED PYRIDAZINOPYRIDONE DERIVATIVE AND USE THEREOF” (Sichuan Huiyu Pharmaceutical Co., Ltd., priority 2023, dated 2024).
Structures can show the parent of a compound that is named as a salt.

Biological target: T1, SOS1 (Homo sapiens, UniProt Q07889)
T1 sequence (Q07889 1-1333): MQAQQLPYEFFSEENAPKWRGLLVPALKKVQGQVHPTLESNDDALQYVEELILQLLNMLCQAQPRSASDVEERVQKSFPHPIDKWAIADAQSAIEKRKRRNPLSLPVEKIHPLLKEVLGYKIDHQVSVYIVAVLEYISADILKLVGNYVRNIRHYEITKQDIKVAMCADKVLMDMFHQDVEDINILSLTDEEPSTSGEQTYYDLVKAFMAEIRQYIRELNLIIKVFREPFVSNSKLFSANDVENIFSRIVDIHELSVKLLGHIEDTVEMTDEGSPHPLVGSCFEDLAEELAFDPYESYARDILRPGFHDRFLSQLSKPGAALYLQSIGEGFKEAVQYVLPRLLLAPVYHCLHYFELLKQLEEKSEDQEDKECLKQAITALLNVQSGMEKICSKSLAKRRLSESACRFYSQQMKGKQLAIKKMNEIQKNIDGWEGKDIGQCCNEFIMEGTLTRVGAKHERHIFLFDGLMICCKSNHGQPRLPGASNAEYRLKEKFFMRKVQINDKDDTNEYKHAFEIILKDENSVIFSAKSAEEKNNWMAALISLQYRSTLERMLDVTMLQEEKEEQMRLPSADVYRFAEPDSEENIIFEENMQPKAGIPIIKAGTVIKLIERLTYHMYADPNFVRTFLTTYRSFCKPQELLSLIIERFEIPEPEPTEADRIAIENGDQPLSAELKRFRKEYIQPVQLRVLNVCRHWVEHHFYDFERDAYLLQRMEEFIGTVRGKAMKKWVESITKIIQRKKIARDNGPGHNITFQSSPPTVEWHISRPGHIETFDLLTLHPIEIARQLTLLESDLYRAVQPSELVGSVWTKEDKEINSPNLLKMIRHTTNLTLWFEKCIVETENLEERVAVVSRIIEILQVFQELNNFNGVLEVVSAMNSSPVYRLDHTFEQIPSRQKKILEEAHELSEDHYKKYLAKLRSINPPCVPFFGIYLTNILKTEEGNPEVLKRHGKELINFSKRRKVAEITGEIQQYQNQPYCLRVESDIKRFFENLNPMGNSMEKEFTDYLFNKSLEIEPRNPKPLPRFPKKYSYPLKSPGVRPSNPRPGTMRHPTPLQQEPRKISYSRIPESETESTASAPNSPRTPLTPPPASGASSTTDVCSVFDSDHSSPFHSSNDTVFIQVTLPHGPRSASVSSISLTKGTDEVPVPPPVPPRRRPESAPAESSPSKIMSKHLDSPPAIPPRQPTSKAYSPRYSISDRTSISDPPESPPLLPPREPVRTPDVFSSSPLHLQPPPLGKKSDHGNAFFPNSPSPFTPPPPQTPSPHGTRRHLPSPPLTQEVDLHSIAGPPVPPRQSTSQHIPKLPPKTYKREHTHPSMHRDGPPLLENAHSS
Assay: biochemical

SMILES | IC50 [nM]
Cc1c(C#N)cccc1[C@@H](C)Nc1nnc(N(C)C)c2cc(=O)n(C3CC3)cc12 [Example 39, (R)-3-(1-((6-cyclopropyl-1-(dimethylamino)-7-oxo-6,7-dihydropyrido[3,4-d]pyridazin-4-yl)amino)ethyl)-2-methylbenzonitrile] | 23.8
Cc1c([C@@H](C)Nc2nnc(N3CCN(C4CCCC4)CC3)c3cc(=O)n(C4(C)CC4)cc23)cccc1C(F)(F)F [Example 96, (R)-1-(4-cyclopentylpiperazin-1-yl)-4-((1-(2-methyl-3-(trifluoromethyl)phenyl)ethyl)amino)-6-(1-methylcyclopropyl) pyrido[3,4-d]pyridazin-7(6H)-one] | 7.4
Cc1c([C@@H](C)Nc2nnc(N3CC4CC4C3)c3cc(=O)n(C4CC4)cc23)cccc1C(F)(F)F (stereo partly drawn) [Example 56, 1-(3-azabicyclo[3.1.0]hexan-3-yl)-6-cyclopropyl-4-(((R)-1-(2-methyl-3-(trifluoromethyl)phenyl)ethyl)amino)pyr ido[3,4-d]pyridazin-7(6H)-one] | 10.6
Cc1c(C(F)F)cccc1[C@@H](C)Nc1nnc(N2CCN(C(C)C)CC2)c2cc(=O)n(C3CC3)cc12 [Example 211, (R)-6-cyclopropyl-4-((1-(3-(difluoromethyl)-2-methylphenyl)ethyl)amino)-1-(4-isopropylpiperazin-1-yl)pyrido[3,4-d]pyridazin-7(6H)-one] | 5.2
CCN(CC)c1nnc(N[C@H](C)c2cccc(C(F)(F)F)c2C)c2cn(C3CC3)c(=O)cc12 [Example 53, (R)-6-cyclopropyl-1-(diethylamino)-4-((1-(2-methyl-3-(trifluoromethyl)phenyl)ethyl)amino)pyr ido[3,4-d]pyridazin-7(6H)-one] | 24.7
C[C@@H](Nc1nnc(N2CCN(C(C)(C)C)CC2)c2cc(=O)n(C3(C)CC3)cc12)c1cccc(C(F)(F)F)c1F [Example 172, (R)-4-((1-(2-fluoro-3-(trifluoromethyl)phenyl)ethyl)amino)-1-(4-tert-butylpiperazin-1-yl)-6-(1-methylcyclopropyl) pyrido[3,4-d]pyridazin-7(6H)-one] | 4.7
CCN1CCN(c2nnc(N[C@H](C)c3cc(N)cc(C)c3F)c3cn(C4(C)CC4)c(=O)cc23)CC1 [Example 160, (R)-4-((1-(5-amino-2-fluoro-3-methylphenyl)ethyl)amino)-1-(4-ethylpiperazin-1-yl)-6-(1-methylcyclopropyl) pyrido[3,4-d]pyridazin-7(6H)-one formate] | 5.7
C[C@@H](Nc1nnc(N2CCC(F)(F)C2)c2cc(=O)n(C3(C)CC3)cc12)c1cccc(C(F)F)c1F [Example 26, (R)-4-((1-(3-(difluoromethyl)-2-fluorophenyl)ethyl)amino)-1-(3,3-difluoropyrrolidin-1-yl)-6-(1-methylcyclopropyl) pyrido[3,4-d]pyridazin-7(6H)-one] | 18.8
C[C@@H]1CCCN1c1nnc(N[C@H](C)c2cccc(C(F)F)c2F)c2cn(C3(C)CC3)c(=O)cc12 [Example 28, 4-(((R)-1-(3-(difluoromethyl)-2-fluorophenyl)ethyl)amino)-6-(1-methylcyclopropyl)-1-((R)-2-methylpyrrolidin-1-yl)pyrido[3,4-d]pyridazin-7(6H)-one] | 5.7
Cc1c(C#N)cccc1[C@@H](C)Nc1nnc(N2CCC(F)(F)C2)c2cc(=O)n(C3(C)CC3)cc12 [Example 69, (R)-3-(1-((1-(3,3-difluoropyrrolidin-1-yl)-6-(1-methylcyclopropyl)-7-oxo-6,7-dihydropyrido[3,4-d]pyridazin-4-yl)amino)ethyl)-2-methylbenzonitrile] | 34.2
C[C@@H](Nc1nnc(N2CC3CN(C)CC3C2)c2cc(=O)n(C3(C)CC3)cc12)c1cccc(C(F)F)c1F (stereo partly drawn) [Example 206, 4-(((R)-1-(3-(difluoromethyl)-2-fluorophenyl)ethyl)amino)-6-(1-methylcyclopropyl)-1-(5-methylhexahydropyrrolo[3,4-c]pyrrol-2(1H)-yl)pyrido[3,4-d]pyridazin-7(6H)-one] | 4.9
C[C@@H](Nc1nnc(N2CC3CCC(C2)O3)c2cc(=O)n(C3(C)CC3)cc12)c1cccc(C(F)F)c1F [Example 198, 1-(8-oxa-3-azabicyclo[3.2.1]octan-3-yl)-4-(((R)-1-(3-(difluoromethyl)-2-fluorophenyl)ethyl)amino)-6-(1-methylcyclopropyl) pyrido[3,4-d]pyridazin-7(6H)-one] | 13.6
C[C@@H](Nc1nnc(N2CCC3(CCOCC3)C2)c2cc(=O)n(C3(C)CC3)cc12)c1cccc(C(F)F)c1F [Example 200, (R)-4-((1-(3-(difluoromethyl)-2-fluorophenyl)ethyl)amino)-6-(1-methylcyclopropyl)-1-(8-oxa-2-azaspiro[4.5]decan-2-yl)pyrido[3,4-d]pyridazin-7(6H)-one] | 4.2
Cc1c(C#N)cccc1[C@@H](C)Nc1nnc(N2CCN(C)CC2)c2cc(=O)n(C3(C)CC3)cc12 [Example 82, (R)-2-methyl-3-(1-((6-(1-methylcyclopropyl)-1-(4-methylpiperazin-1-yl)-7-oxo-6,7-dihydropyrido[3,4-d]pyridazin-4-yl)amino)ethyl)benzonitrile] | 9
C[C@@H](Nc1nnc(N2CCN(C3CCC3)CC2)c2cc(=O)n(C3(C)CC3)cc12)c1cccc(C(F)(F)F)c1F [Example 173, (R)-4-((1-(2-fluoro-3-(trifluoromethyl)phenyl)ethyl)amino)-1-(4-cyclobutylpiperazin-1-yl)-6-(1-methylcyclopropyl) pyrido[3,4-d]pyridazin-7(6H)-one] | 5.3
C[C@@H](Nc1nnc(N2CC3COCC3C2)c2cc(=O)n(C3(C)CC3)cc12)c1cccc(C(F)F)c1F (stereo partly drawn) [Example 205, 4-(((R)-1-(3-(difluoromethyl)-2-fluorophenyl)ethyl)amino)-6-(1-methylcyclopropyl)-1-(tetrahydro-1H-furo[3,4-c]pyrrol-5(3H)-yl)pyrido[3,4-d]pyridazin-7(6H)-one] | 4.1
C[C@@H](Nc1nnc(N2CCC(F)(F)C2)c2cc(=O)n(C3CC3)cc12)c1cccc(C(F)F)c1F [Example 14, (R)-6-cyclopropyl-4-((1-(3-(difluoromethyl)-2-fluorophenyl)ethyl)amino)-1-(3,3-difluoropyrrolidin-1-yl)pyrido[3,4-d]pyridazin-7(6H)-one] | 17.6
C[C@@H](Nc1nnc(N2CC(CO)C2)c2cc(=O)n(C3(C)CC3)cc12)c1cccc(C(F)(F)F)c1 [Example 177, (R)-1-(3-(hydroxymethyl)azetidin-1-yl)-6-(1-methylcyclopropyl)-4-((1-(3-(trifluoromethyl)phenyl)ethyl)amino)pyr ido[3,4-d]pyridazin-7(6H)-one formate] | 6.2
CC(C)N1CCN(c2nnc(N[C@H](C)c3cccc(C(F)(F)F)c3F)c3cn(C4(C)CC4)c(=O)cc23)CC1 [Example 169, (R)-4-((1-(2-fluoro-3-(trifluoromethyl)phenyl)ethyl)amino)-1-(4-isopropylpiperazin-1-yl)-6-(1-methylcyclopropyl) pyrido[3,4-d]pyridazin-7(6H)-one] | 4.7
C[C@@H](Nc1nnc(N2CCN(C3CC3)CC2)c2cc(=O)n(C3(C)CC3)cc12)c1cccc(C(F)F)c1F [Example 218, (R)-1-(4-cyclopropylpiperazin-1-yl)-4-((1-(3-(difluoromethyl)-2-fluorophenyl)ethyl)amino)-6-(1-methylcyclopropyl) pyrido[3,4-d]pyridazin-7(6H)-one] | 6
